Values quoted from earlier work as cited in article PMC9516332 (Frontiers in Oncology, 2022).
Like-named read-outs stand apart in the source and are kept apart here.

How the values were obtained:
Settings in all cases: cited from earlier work
[1] = target: panel of 255 wild-type kinases (Homo sapiens, UniProt Q9H422)
[2] = target: panel of 255 wild-type kinases (Homo sapiens, UniProt P31751)
[3] = target: T1, panel of 255 wild-type kinases (Homo sapiens, UniProt Q9NZJ5)
T1 sequence (Q9NZJ5 30-1116): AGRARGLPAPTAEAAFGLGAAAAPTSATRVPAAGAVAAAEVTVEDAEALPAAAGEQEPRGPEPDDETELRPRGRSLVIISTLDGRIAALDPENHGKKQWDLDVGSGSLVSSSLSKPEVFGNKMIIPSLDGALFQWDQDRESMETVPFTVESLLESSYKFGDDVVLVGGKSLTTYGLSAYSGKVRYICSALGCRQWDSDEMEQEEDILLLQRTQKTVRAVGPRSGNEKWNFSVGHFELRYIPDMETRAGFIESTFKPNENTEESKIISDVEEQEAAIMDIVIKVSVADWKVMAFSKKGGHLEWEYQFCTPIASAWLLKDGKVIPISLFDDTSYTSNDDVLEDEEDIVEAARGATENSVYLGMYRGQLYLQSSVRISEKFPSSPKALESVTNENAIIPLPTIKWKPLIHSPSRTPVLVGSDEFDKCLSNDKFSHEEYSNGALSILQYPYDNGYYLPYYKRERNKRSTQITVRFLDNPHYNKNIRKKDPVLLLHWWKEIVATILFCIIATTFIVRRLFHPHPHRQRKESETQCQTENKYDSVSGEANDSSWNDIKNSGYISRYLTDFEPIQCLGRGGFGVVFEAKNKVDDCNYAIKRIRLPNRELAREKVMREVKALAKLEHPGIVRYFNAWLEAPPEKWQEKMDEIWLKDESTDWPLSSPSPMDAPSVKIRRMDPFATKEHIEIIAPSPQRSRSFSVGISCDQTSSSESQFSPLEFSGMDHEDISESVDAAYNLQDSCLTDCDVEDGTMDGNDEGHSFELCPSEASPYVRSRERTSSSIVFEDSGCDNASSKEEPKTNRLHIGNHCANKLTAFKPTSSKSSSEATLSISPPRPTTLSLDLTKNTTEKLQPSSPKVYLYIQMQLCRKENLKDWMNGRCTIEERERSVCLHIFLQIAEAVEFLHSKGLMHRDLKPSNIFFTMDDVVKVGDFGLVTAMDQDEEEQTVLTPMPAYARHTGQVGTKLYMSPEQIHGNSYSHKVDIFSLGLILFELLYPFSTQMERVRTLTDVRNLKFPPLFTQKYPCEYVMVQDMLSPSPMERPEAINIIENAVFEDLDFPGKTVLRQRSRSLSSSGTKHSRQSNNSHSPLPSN

[4] = target: panel of 255 wild-type kinases (Homo sapiens, UniProt P54646)
[5] = target: panel of 255 wild-type kinases (Homo sapiens, UniProt Q9Y6E0)
[6] = target: panel of 255 wild-type kinases (Homo sapiens, UniProt P31749)
[7] = target: panel of 255 wild-type kinases (Homo sapiens, UniProt P41240)
[8] = target: panel of 255 wild-type kinases (Homo sapiens, UniProt Q8N4C8)
[9] = target: panel of 255 wild-type kinases (Homo sapiens, UniProt Q96SB4)
[10] = target: panel of 255 wild-type kinases (Homo sapiens, UniProt P16591)
[11] = target: panel of 255 wild-type kinases (Homo sapiens, UniProt Q8IY84)
[12] = target: panel of 255 wild-type kinases (Homo sapiens, UniProt P51451)
[13] = target: panel of 255 wild-type kinases (Homo sapiens, UniProt P24941)
[14] = target: panel of 255 wild-type kinases (Homo sapiens, UniProt P49137)
[15] = target: panel of 255 wild-type kinases (Homo sapiens, UniProt Q9Y463)
[16] = kinase HIPK3, 1 µmol/L single concentration, ref DOI: 10.1158/1535-7163.MCT-18-0877
[17] = AKT2 kinase assay, 1 µmol/L single concentration, ref DOI: 10.1158/1535-7163.MCT-18-0877
[18] = kinase PEK, 1 µmol/L single concentration, ref DOI: 10.1158/1535-7163.MCT-18-0877
[19] = AMPKα2/β1/γ1 kinase assay, 1 µmol/L single concentration, ref DOI: 10.1158/1535-7163.MCT-18-0877
[20] = MST3, 1 µmol/L single concentration, ref DOI: 10.1158/1535-7163.MCT-18-0877
[21] = AKT1 kinase assay, 1 µmol/L single concentration, ref DOI: 10.1158/1535-7163.MCT-18-0877
[22] = kinase CSK, 1 µmol/L single concentration, ref DOI: 10.1158/1535-7163.MCT-18-0877
[23] = MINK, 1 µmol/L single concentration, ref DOI: 10.1158/1535-7163.MCT-18-0877
[24] = kinase SRPK1, 1 µmol/L single concentration, ref DOI: 10.1158/1535-7163.MCT-18-0877
[25] = kinase FER, 1 µmol/L single concentration, ref DOI: 10.1158/1535-7163.MCT-18-0877
[26] = NIM1K, 1 µmol/L single concentration, ref DOI: 10.1158/1535-7163.MCT-18-0877
[27] = BLK kinase assay, 1 µmol/L single concentration, ref DOI: 10.1158/1535-7163.MCT-18-0877
[28] = CDK2/CycA2 kinase assay, 1 µmol/L single concentration, ref DOI: 10.1158/1535-7163.MCT-18-0877
[29] = CDK2/CycE1 kinase assay, 1 µmol/L single concentration, ref DOI: 10.1158/1535-7163.MCT-18-0877
[30] = kinase MAPKAPK2, 1 µmol/L single concentration, ref DOI: 10.1158/1535-7163.MCT-18-0877
[31] = kinase DYRK1B, 1 µmol/L single concentration, ref DOI: 10.1158/1535-7163.MCT-18-0877

Compound	%-inhibition at 1 µmol/L, HIPK3 [1, 16] [%]	%-inhibition AKT2 [2, 17] [%]	%-inhibition at 1 µmol/L, PEK [3, 18] [%]	%-inhibition AMPKα2/β1/γ1 [4, 19] [%]	%-inhibition, MST3 [5, 20] [%]	%-inhibition AKT1 [6, 21] [%]	%-inhibition at 1 µmol/L, CSK [7, 22] [%]	%-inhibition, MINK [8, 23] [%]	%-inhibition at 1 µmol/L, SRPK1 [9, 24] [%]	%-inhibition at 1 µmol/L, FER [10, 25] [%]	%-inhibition, NIM1K [11, 26] [%]	%-inhibition BLK [12, 27] [%]	%-inhibition CDK2/CycA2 [13, 28] [%]	%-inhibition CDK2/CycE1 [13, 29] [%]	%-inhibition at 1 µmol/L, MAPKAPK2 [14, 30] [%]	%-inhibition at 1 µmol/L, DYRK1B [15, 31] [%]	other results
CC#CC(=O)N1CCC[C@H]1c1nc(-c2ccc(C(=O)Nc3ccccn3)cc2)c2c(N)nccn12 [acalabrutinib]	-12	-2.69	8	3.5	-2.52	-6	7	-1.13	-4.73	-2.54	-7	8.43	-5	-5	-21	-19	–
CCc1cc2c(cc1N1CCC(N3CCOCC3)CC1)C(C)(C)c1[nH]c3cc(C#N)ccc3c1C2=O [alectinib]	3.19	0.306	9	6	-2.37	3.25	6	–	83	66	-2.13	17	5.68	-2.55	-5.66	2	–
COc1cc(N2CCC(N3CCN(C)CC3)CC2)ccc1Nc1ncc(Cl)c(Nc2ccccc2P(C)(C)=O)n1 [brigatinib]	–	–	–	–	–	–	–	–	–	–	–	–	–	–	–	–	%-inhibition at 1 µmol/L, HIPK3 [1]: 7%; %-inhibition AKT2 [2]: -1%; %-inhibition at 1 µmol/L, PEK [3]: 18%; %-inhibition AMPKα2/β1/γ1 [4]: 90%; %-inhibition, MST3 [5]: 13%; %-inhibition AKT1 [6]: 1.5%; %-inhibition at 1 µmol/L, CSK [7]: 9%; %-inhibition, MINK [8]: 6%; %-inhibition at 1 µmol/L, SRPK1 [9]: 4%; %-inhibition at 1 µmol/L, FER [10]: 102%; %-inhibition, NIM1K [11]: 3%; %-inhibition BLK [12]: 83%; %-inhibition CDK2/CycA2 [13]: 53%; %-inhibition CDK2/CycE1 [13]: 30%; %-inhibition at 1 µmol/L, MAPKAPK2 [14]: -14%; %-inhibition at 1 µmol/L, DYRK1B [15]: 41%
O=C(c1ccc(F)c(F)c1Nc1ccc(I)cc1F)N1CC(O)([C@@H]2CCCCN2)C1 [cobimetinib]	2.74	-2.75	5	9	4.62	-7	5.62	-2.67	-11	4	-3.67	10	-8	-8	-7	2	–
C=CC(=O)Nc1cc(Nc2nccc(-c3cn(C)c4ccccc34)n2)c(OC)cc1N(C)CCN(C)C [osimertinib]	20	2.2	7	11	5.71	-9	9	21	-9	78	-10	66	-6	24	-9	5	–
